Read-outs that look alike come from different tables or passages of the source.
How the values were obtained:
[1] = test system: human monocytic-macrophage THP1 cells; assay: Cell proliferation inhibition, THP1 cells; type: cell-based; conditions: read-out: Growth inhibitory effects, IC50
Protocol: In other experiments human monocytic-macrophage THP1 cells were tested for antiproliferative effects of folate antagonists. To this end, 1 ml of cell suspension containing 1.25×10^5 cells were plated in individual wells of a 24-well tissue culture plate and incubated with 8 concentrations (with 2.5-fold increments) of folate antagonist drugs. After 72 hours drug exposure cell counts were performed with a haemocytometer and viability was checked by trypan blue exclusion.

[2] = target: T1, FR-β (Homo sapiens, UniProt P14207); assay: Intact cell competitive binding of [3H]-folic acid to FR-β (CHO-β cells); conditions: for FR-β binding affinity relative to folic acid: [3H]-folic acid displacement, 10 min at 4° C.
T1 construct: expressed in transfected cells; host or cells: Chinese Hamster Ovary cells (CHO-β / CHO-FR-β)
Protocol: (§1) An intact cell binding assay for competitive binding of [^3H]-folic acid and novel anti-folate drugs to FR-β and FR-α was performed essentially as described previously. See Mol. Pharmacol. 1995; 48: […] and Cancer Res. 1995; 55(17): 3795-3802 (both Westerhof et al.). Briefly, CHO-β cells (FR-β transfected Chinese Hamster Ovary cells) and KB cells (FR-α expressing cells) were detached by incubation in PBS+1 mM EDTA. Detached cells were suspended in ice-cold HEPES-buffered saline (140 mM NaCl, 20 mM HEPES, 6 mM KCl, 2 mM MgCl2, 6 mM D-glucose, pH 7.4 with NaOH) to a cell concentration of 3×10^6 and 1×10^6 cells/ml, respectively. One ml of cell suspension was added to a series of Eppendorf tubes containing […] [^3H]-folic acid (specific radioactivity: 2,000 dpm/μmol) in the absence or presence of increasing concentrations of natural folate or folate antagonists. Following 10 minutes at 4° C., cells were centrifuged in an Eppendorf centrifuge (30 s, 10,000 rpm), the supernatant was aspirated and cell pellets were resuspended in 200 μl water and analysed for radioactivity (Optima Gold scintillation fluid, United Technologies, Packard, Brussels, Belgium). Non-specific binding of [^3H] […] For comparison, data for affinities of the RFC for natural folates and folate antagonists were presented from previous studies. See. Mol Pharmacol 1995; 48: 459-471 Westerhof et al.) and Cancer Res. 2005; 65(24): 11721-11728 (Gibbs et al.).

[3] = target: T2, FR-α (Homo sapiens, UniProt P15328); assay: Intact cell competitive binding of [3H]-folic acid to FR-α (KB cells); conditions: FRα (KB) versus FR-β (CHO-β)
T2 construct: KB cells (FR-α expressing cells); host or cells: KB cells
Protocol: as §1, with “Mol Pharmacol 1995; 48: 459-471 Westerhof et al.) and Cancer Res. 2005; 65(24): 11721-11728 (Gibbs et al.).” left out

[4] = test system: macrophages (3A5) in synovial sublining layer; assay: Synovial tissue immunohistochemistry of RA patients treated with MTX; type: in vivo, human; conditions: after 4 months of MTX, 219 before treatment, p=0.14
Protocol: In this study we analysed synovial tissue biopsies derived from the knee joints of 15 RA-patients with active disease before treatment and after 4 months of treatment with MTX (starting dose of MTX: 7.5 mg/week; increasing stepwise to 15 mg/week over 12 weeks). Active disease was defined as ≧6 swollen or tender joints and levels of moderate or worse on the physician's and patient's assessments of disease activity (Disease Activity Score-28; DAS-28). All patients had at least 1 clinically involved knee joint. Low dose prednisone (<10 mg/day) and concomitant stable doses of nonsteroidal anti-inflammatory drug (NSAID) treatment were allowed. None of the patients ever used MTX before enrolling the study. In patients taking other DMARDs, the treatment was terminated following a washout phase of 28 days. […]
Immunohistochemical staining of cryostat sections (4 μm) of synovial tissue biopsies from RA patients and controls was performed using a 3-step immunoperoxidase method as described previously. […] Stained sections were analysed for FR-β, 3A5 and CD3 expression by digital image analysis, as described previously. […] Positive cells were evaluated by analysing 18 consecutive hpfs, scoring numbers of positive cells in the intimal lining layer and the synovial sublining per mm^2.

[5] = test system: CHO/WT cells; assay: Cell proliferation inhibition, CHO-WT cells; type: cell-based, Chinese Hamster; conditions: 72 hours
Protocol: (§2) Cell proliferation inhibition assay CHO-WT and CHO-FRβ cells were seeded in individual wells of a 24-well tissue culture plate at a density of 1×10^4/cm^2. […] After 72 hours incubation, cells were harvested by trypsinization and counted for cell viability as described before. See Mol. Pharmacol. 1999; 55(4): 761-769 (Jansen et al.).

[6] = test system: CHO/FR-β cells; assay: Cell proliferation inhibition, CHO-FR-β cells; type: cell-based, Chinese Hamster; conditions: for Effect of addition of folic acid on growth inhibitory activity: 1 μM folic acid to block FR
Protocol: as §2

[7] = target: T3, RFC (reduced folate carrier) (Homo sapiens, UniProt P41440); conditions: cited from earlier work
T3 sequence (P41440 1-591): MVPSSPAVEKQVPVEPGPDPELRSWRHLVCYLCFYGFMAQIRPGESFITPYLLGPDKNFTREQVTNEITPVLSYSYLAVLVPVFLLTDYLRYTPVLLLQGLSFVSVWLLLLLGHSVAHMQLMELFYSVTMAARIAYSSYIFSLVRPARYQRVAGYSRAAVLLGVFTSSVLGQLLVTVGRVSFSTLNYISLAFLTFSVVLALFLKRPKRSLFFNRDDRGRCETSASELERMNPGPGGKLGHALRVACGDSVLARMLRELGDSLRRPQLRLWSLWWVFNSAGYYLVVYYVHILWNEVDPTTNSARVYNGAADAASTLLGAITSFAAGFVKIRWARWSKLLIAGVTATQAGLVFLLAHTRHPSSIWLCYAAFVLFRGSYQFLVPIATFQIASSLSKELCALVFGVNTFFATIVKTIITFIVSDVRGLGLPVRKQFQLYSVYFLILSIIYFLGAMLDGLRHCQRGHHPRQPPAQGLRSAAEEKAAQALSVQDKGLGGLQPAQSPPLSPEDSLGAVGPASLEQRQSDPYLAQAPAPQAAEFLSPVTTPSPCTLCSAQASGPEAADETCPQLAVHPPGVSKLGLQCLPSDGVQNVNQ

T1 sequence (P14207 17-230): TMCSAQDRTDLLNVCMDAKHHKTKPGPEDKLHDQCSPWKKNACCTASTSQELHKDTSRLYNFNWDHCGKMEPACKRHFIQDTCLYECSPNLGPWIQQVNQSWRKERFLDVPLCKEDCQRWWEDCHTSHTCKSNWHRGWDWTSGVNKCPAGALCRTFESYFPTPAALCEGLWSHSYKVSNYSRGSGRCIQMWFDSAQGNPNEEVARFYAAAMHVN
T2 sequence (P15328 25-234): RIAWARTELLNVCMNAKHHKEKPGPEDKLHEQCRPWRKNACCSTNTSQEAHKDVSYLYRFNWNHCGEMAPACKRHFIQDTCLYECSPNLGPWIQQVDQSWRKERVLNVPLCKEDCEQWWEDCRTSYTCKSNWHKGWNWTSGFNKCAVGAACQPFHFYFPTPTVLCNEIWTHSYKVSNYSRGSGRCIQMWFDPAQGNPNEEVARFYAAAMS

Molecule	IC50 ([1]; Homo sapiens, THP-1, 72 h) [nM]	FR-β binding affinity [2]	FR-β binding affinity relative to folic acid [2]	further results
C#CCN(Cc1cc2c(=O)[nH]c(C)nc2cc1C)c1ccc(C(=O)N[C@@H](CCc2nn[nH]n2)C(=O)O)c(F)c1 [BGC 9331]	8.7 ± 0.8			
Nc1nc2c(c(=O)[nH]1)CC(CCc1ccc(C(=O)N[C@@H](CCC(=O)O)C(=O)O)cc1)CN2 (stereo partly shown) [DDATHF, 5,10-dideazatetrahydrofolate]	9.8 ± 0.8	moderate to high binding affinities	27 % of folic acid	FRα binding affinity, fold higher than FR-β [3]: 2.5 fold
CN(Cc1cnc2nc(N)nc(N)c2n1)c1ccc(C(=O)N[C@@H](CCC(=O)O)C(=O)O)cc1 [MTX, methotrexate]	7.1 ± 0.5			FR-β binding affinity, fold lower than for folic acid [2]: approximately 50 fold; Median numbers of macrophages after MTX treatment [4]: 119 positive cell counts in the synovial sublining layer/mm^2
C#CCN(c1ccc(C(=O)N[C@@H](CCC(=O)N[C@H](CCC(=O)O)C(=O)O)C(=O)O)cc1)[C@H]1CCc2cc3nc(CO)[nH]c(=O)c3cc21 [(6S)-BGC 945]			46 % of folic acid	
Nc1nc(N)c2nc(CNc3ccc(C(=O)N[C@@H](CCCNC(=O)c4ccccc4C(=O)O)C(=O)O)cc3)cnc2n1 [PT523]	2.2 ± 0.3		0.3 % of folic acid	
Cc1nc2ccc(CN(C)c3ccc(C(=O)N[C@@H](CCC(=O)O)C(=O)O)s3)cc2c(=O)[nH]1 [Raltitrexed]	2.4 ± 0.5			
Pemetrexed				IC50 ([1]; RPMI-1640 with 2.2 μM folic acid, 72 hours drug exposure, mean ± S.D. of 3 experiments): 10.7 ± 2.2 nM
C#CCN(c1ccc(C(=O)N[C@@H](CCC(=O)N[C@H](CCC(=O)O)C(=O)O)C(=O)O)cc1)C1CCc2cc3nc(CO)[nH]c(=O)c3cc21 (mixture of isomers) [BGC 945]	3630 ± 350	relatively high binding affinity	89 % of folic acid	Extracellular concentration inducing growth inhibition of CHO/WT cells [5]: > 1000 nM; Effect of addition of folic acid on growth inhibitory activity [6]: completely abrogated; Concentration inducing growth inhibition of CHO/FR-β cells ([6]; 72 hours): 10 to 50 nM; Differential in activity between control CHO cells and FR-β transfected cells ([6]; CHO/WT versus CHO/FR-β): largest differential in activity; Affinity for RFC [7]: poor affinity for RFC

Further lines, with some results ahead:

IC50 ([1]; Homo sapiens, THP-1, 72 h) [nM]	FR-β binding affinity [2]	Molecule	FR-β binding affinity relative to folic acid [2]	further results
1 ± 0.4	affinity comparable to MTX	Cc1c(CNc2ccc(C(=O)N[C@@H](CCCNC(=O)c3ccccc3C(=O)O)C(=O)O)cc2)cnc2nc(N)nc(N)c12 [PT644]		
3.2 ± 0.2	moderate to high binding affinities	Nc1nc2c(c(=O)[nH]1)SC(CCc1ccc(C(=O)N[C@@H](CCC(=O)O)C(=O)O)s1)CN2 (stereo partly shown) [AG2034]	54 % of folic acid	Growth inhibition of CHO/WT cells [5]: displayed a growth inhibitory potential; Abrogation of growth inhibitory effects by FR-β blocking (folic acid) and RFC blocking (LV) ([6]; folic acid 1 μM or leucovorin 20 nM, CHO/WT and CHO/FR-β): only partial; FRα binding affinity, fold higher than FR-β [3]: 2.5 fold
4850 ± 285	relatively high binding affinity	C#CN(Cc1cc2c(=O)[nH]c(N)nc2cc1C)c1ccc(C(=O)N[C@@H](CCC(=O)CN[C@H](CCCC(=O)O)C(=O)O)C(=O)O)c(F)c1 [CB300635]	161 % of folic acid	Effect of addition of folic acid on growth inhibitory activity [6]: abrogated activity; Growth inhibition of CHO/FR-β cells ([6]; 72 hours): not markedly potent; Affinity for RFC [7]: poor affinity for RFC
1.6 ± 0.1	relatively high binding affinity	Cc1nc2ccc3ccc(CNc4ccc5c(c4)CN([C@@H](CCC(=O)O)C(=O)O)C5=O)cc3c2c(=O)[nH]1 [GW1843]		

Reference: patent US8466111B2, “Cyclopenta{G}quinazoline derivatives for the treatment of rheumatoid arthritis or acute myeloid leukaemia” (BTG International Limited, priority 2008, dated 2013)
